Assay [1] can be described thus: viability of PTEN-deleted HCT116 cells – cell-based, HCT116 PTEN knockout, dose response (AID 1047).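 Note: HCT116 colon tumor cells with PTEN knocked out; cells exposed to compound for 60 hours before readout; potency for loss of cell viability measured by luminescence.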 The format is functional.
The target of assay [2] is Neurotensin receptor type 1 (Homo sapiens, UniProt P30989). The format is functional.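 Note: Image-based confirmatory dose-response assay measuring agonist activity at NTR1; NTR1-expressing U2OS osteosarcoma cells imaged for beta-arrestin GFP spot formation; agonist potency where compounds increase beta-arrestin recruitment.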
Assay [3] is described as follows: viability of HCT116 lacking mutant beta-catenin – cell-based, human colon tumor, dose response (AID 1045).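 Note: HCT116 colon tumor cells with beta catenin knocked out; cells exposed to compound for 60 hours.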 The format is functional.
A short description of assay [4]: microbe, parasite or virus in culture. The assay is classed as functional. The note with it: Mycobacterium tuberculosis.
Assay [5] is described as follows: Luminescence Cell-Based Dose Retest to Confirm Inhibitors of Cancer Stem Cells. [Related pubchem assays (depositor defined):AID2717, AID2721]. The assay is classed as functional. To be noted: Homo sapiens.
Assay [6] addresses T1, Zinc finger protein mex-5 (Caenorhabditis elegans, UniProt Q9XUB2).
T1 sequence (Q9XUB2 whole entry): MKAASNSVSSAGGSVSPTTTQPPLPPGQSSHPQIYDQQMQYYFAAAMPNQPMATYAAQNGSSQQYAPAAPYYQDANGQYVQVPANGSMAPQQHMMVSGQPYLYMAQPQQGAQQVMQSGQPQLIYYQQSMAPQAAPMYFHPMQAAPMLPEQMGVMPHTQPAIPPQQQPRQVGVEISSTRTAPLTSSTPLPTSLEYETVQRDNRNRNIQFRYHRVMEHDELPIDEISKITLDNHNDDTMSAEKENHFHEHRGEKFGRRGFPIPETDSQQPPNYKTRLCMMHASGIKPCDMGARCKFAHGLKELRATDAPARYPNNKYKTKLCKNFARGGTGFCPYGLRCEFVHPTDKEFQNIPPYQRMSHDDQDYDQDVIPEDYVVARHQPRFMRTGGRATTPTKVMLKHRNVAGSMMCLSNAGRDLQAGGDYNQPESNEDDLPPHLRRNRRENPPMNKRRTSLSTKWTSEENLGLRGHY
As to the kind of experiment: potency of MEX-5 RNA-binding blockers – biochemical, C. elegans, fluorescence polarization, dose response (AID 1960).

Another assay concerns the target Perilipin-1/ABHD5 (Homo sapiens, UniProt O60240+Q8WTS1). As to the kind of experiment: Luminescence-based biochemical high throughput dose response assay for inhibitors of the interaction of the lipase co-activator protein, abhydrolase domain containing 5 (ABHD5) with perilipin-1 (PLIN1) (2K validation set). [Related pubchem assays (depositor defined):AID493027, AID493057].

Assay [7] concerns the target DNA dC->dU-editing enzyme APOBEC-3G (Homo sapiens, UniProt Q9HC16). As to the kind of experiment: Dose Response confirmation of small molecule APOBEC3G DNA Deaminase Inhibitors via a fluorescence-based single-stranded DNA deaminase assay. [Related pubchem assays (depositor defined):AID493012, AID493028]. The assay is classed as functional.
For a further assay, the target named is Hexokinase HKDC1 (Homo sapiens, UniProt Q2TB90). As to the kind of experiment: inhibition of HKDC1 glucose phosphorylation – biochemical, W721R variant, dose response (AID 504729). The assay is classed as functional.
Chain of Hexokinase HKDC1 (Q2TB90 whole entry, the tested form may be a part): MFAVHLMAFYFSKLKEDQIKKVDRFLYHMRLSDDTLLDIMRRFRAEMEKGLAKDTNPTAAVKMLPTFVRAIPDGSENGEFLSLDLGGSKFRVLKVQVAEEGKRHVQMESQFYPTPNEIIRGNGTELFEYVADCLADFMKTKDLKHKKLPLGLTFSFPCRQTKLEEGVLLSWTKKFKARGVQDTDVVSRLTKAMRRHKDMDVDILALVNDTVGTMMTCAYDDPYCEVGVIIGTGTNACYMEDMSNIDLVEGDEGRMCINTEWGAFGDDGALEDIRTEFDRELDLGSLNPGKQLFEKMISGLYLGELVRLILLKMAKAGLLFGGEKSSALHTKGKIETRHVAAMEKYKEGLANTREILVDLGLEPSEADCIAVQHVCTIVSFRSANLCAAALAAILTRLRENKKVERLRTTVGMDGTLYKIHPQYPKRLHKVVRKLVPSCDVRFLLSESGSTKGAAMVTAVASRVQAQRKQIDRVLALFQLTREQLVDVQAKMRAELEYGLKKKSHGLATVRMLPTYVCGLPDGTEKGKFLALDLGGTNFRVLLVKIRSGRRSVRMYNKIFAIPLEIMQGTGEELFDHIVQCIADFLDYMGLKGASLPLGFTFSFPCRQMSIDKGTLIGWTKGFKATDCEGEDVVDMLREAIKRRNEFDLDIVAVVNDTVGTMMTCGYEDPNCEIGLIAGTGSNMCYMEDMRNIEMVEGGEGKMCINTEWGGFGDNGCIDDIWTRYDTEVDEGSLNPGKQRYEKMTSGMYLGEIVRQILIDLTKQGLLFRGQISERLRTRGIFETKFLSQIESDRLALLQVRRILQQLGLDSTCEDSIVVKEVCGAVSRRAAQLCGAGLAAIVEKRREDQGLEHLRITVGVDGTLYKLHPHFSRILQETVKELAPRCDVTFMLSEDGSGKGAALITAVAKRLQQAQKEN
Assay [8] has as its target 1-acylglycerol-3-phosphate O-acyltransferase ABHD5/Perilipin-5 (Homo sapiens, UniProt Q00G26+Q8WTS1). As to the kind of experiment: Luminescence-based biochemical high throughput dose response assay for inhibitors of the interaction of the lipase co-activator protein, abhydrolase domain containing 5 (ABHD5) with perilipin-5 (MLDP; PLIN5) (2K validation set). [Related pubchem assays (depositor defined):AID493035, AID493241].

In assay [9] the target is T2, RNA-binding protein pos-1 (Caenorhabditis elegans, UniProt G5EF15).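 Note: purified POS-1 fused to maltose binding protein made in E. coli; potency of compounds blocking POS-1 binding to fluorescent RNA.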
T2 sequence (G5EF15 whole entry): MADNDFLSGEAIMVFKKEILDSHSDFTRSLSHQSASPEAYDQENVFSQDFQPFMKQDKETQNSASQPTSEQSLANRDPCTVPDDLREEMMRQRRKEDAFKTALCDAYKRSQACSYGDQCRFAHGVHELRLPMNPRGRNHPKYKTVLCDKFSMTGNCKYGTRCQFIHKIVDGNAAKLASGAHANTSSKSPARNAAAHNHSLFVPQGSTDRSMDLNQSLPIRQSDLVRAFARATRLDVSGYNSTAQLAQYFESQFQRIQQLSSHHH
Put plainly: disruptors of C. elegans POS-1 RNA interaction – biochemical, fluorescence polarization, dose response (AID 1964). (In general: In fluorescence polarisation assays a small probe gives low polarisation when free and higher when bound to something large.)

For assay [10], the target named is DNA dC->dU-editing enzyme APOBEC-3A (Homo sapiens, UniProt P31941). As to the kind of experiment: A3A deaminase inhibition for selectivity – biochemical, dose response (AID 504722). The format is functional.
Chain of DNA dC->dU-editing enzyme APOBEC-3A (P31941 whole entry): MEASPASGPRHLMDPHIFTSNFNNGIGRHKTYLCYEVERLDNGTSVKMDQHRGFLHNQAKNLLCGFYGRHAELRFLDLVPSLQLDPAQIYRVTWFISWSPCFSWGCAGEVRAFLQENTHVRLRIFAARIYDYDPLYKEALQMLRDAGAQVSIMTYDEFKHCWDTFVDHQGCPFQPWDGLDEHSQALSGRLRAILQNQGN
Assay [11] deals with Induced myeloid leukemia cell differentiation protein Mcl-1 (Homo sapiens, UniProt Q07820). The format is functional.
The next assay addresses Beta-galactosidase (Escherichia coli, UniProt Q8VNN2). As to the kind of experiment: detection-enzyme interference by beta-gal modulators – biochemical, E. coli enzyme, set 3, artefact control for CCR6 antagonist project, dose response (AID 504712). The format is functional.
Assay [12] deals with NACHT, LRR and PYD domains-containing protein 3 (Homo sapiens, UniProt Q96P20). As to the kind of experiment: NALP3 inhibitors in yeast, dose response, luminescent (AID 488799). The format is functional.
For assay [13], the target named is Melanin-concentrating hormone receptor 1 (Homo sapiens, UniProt Q99705). As to the kind of experiment: Late-stage fluorescence-based counterscreen for antagonists of the G-protein coupled receptor 7 (GPR7): cell-based dose response assay to identify antagonists of the melanin-concentrating hormone receptor 1 (MCHR1). [Related pubchem assays (depositor defined):AID1861, AID1880, AID1952, AID2148, AID2251, AID2257, AID485339]. The assay is classed as functional. In general terms: Counterscreens check selectivity or assay interference.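 Note: stimulated with 30 nM MCH peptide agonist.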
Chain of Melanin-concentrating hormone receptor 1 (Q99705 whole entry): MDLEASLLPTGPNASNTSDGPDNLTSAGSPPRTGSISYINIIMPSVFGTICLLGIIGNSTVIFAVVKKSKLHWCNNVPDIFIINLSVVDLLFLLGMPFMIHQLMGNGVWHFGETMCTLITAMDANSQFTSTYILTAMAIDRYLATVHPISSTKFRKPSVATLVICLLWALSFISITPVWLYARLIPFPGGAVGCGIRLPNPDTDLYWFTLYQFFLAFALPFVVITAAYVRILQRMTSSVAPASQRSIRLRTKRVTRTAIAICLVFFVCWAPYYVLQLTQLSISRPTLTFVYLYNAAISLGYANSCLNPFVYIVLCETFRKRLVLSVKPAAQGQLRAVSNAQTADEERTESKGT

In assay [14] the target is T3, Neuropeptides B/W receptor type 1 (Homo sapiens, UniProt P48145).
T3 sequence (P48145 whole entry): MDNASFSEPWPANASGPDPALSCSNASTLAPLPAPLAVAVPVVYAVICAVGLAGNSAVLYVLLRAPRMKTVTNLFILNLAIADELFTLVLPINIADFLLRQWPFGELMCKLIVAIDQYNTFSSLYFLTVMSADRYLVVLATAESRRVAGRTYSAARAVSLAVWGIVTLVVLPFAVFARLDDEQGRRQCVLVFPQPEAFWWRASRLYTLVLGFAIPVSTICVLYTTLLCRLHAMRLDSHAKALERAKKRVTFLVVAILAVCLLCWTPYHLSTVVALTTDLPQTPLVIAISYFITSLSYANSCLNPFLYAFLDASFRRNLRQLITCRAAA
As to the kind of experiment: human NPBW1 receptor blockade, IC50 – cell-based, fluorescence, dose response, late-stage follow-up (AID 463251). The assay is classed as functional.

In assay [15] the target is T4, Voltage-gated N-type calcium channel alpha-1B subunit/Amyloid beta A4 precursor protein-binding family A member 1 (Homo sapiens, UniProt Q00975+Q02410). As to the kind of experiment: disruptors of Mint-PDZ/N-type channel peptide interaction – biochemical, HTRF, set 2, SAR follow-up (AID 434980). The assay is classed as functional.
T4 sequence (Q00975 whole entry): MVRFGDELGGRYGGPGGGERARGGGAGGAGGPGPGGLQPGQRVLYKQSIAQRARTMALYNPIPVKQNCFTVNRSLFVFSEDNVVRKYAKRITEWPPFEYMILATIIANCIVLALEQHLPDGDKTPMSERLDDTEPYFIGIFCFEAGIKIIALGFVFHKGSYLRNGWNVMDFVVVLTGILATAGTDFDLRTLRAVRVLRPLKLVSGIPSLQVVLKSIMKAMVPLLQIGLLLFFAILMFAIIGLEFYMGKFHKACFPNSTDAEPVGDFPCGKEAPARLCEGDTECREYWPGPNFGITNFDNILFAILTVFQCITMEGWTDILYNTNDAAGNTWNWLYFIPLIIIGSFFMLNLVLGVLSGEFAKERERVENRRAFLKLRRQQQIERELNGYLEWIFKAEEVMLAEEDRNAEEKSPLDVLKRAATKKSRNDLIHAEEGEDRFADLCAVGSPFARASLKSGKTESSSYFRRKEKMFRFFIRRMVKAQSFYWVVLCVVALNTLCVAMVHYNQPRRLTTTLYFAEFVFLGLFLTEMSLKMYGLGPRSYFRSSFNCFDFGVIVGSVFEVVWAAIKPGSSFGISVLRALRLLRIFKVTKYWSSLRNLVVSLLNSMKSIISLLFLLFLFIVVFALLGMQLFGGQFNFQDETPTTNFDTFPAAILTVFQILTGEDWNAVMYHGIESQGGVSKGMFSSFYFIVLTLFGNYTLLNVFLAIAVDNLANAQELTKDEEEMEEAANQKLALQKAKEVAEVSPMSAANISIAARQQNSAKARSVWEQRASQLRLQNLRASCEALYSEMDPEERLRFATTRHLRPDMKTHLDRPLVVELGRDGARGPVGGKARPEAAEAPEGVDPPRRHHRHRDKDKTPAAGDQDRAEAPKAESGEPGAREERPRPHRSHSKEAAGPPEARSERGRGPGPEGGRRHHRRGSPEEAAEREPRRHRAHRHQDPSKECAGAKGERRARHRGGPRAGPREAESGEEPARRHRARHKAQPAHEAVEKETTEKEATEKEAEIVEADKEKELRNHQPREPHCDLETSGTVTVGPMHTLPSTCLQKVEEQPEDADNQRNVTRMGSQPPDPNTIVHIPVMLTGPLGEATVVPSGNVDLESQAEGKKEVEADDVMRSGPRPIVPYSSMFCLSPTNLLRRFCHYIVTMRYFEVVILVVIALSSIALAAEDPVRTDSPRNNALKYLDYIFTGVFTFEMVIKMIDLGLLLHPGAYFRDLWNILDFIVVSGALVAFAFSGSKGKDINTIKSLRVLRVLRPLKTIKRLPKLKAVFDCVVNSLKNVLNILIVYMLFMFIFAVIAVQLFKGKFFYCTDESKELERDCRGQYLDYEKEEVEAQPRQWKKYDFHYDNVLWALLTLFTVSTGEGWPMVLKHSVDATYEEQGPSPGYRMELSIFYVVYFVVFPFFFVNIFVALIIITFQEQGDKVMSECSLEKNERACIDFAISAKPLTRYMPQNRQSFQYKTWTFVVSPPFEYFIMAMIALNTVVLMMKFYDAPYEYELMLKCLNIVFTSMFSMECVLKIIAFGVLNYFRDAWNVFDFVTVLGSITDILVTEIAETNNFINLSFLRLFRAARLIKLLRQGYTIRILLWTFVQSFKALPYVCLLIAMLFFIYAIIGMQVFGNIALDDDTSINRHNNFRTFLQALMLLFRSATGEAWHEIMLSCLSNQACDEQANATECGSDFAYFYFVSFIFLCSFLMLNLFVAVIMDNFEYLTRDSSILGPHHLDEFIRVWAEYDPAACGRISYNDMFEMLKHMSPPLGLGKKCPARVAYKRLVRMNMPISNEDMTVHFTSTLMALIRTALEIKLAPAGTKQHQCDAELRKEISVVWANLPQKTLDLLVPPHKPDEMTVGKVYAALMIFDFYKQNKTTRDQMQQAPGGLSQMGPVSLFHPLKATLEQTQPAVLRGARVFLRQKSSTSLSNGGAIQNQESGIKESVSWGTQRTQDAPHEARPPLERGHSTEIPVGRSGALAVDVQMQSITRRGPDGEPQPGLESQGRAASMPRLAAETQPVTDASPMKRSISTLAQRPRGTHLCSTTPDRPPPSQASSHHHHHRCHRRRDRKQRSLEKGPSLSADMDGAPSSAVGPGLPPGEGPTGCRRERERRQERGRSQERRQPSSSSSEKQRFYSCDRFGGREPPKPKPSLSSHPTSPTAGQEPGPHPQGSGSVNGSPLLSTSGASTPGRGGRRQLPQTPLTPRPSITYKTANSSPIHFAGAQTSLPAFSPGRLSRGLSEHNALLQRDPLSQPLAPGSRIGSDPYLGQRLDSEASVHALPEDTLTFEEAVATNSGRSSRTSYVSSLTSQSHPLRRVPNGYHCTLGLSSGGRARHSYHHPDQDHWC
T4 sequence (Q02410 whole entry): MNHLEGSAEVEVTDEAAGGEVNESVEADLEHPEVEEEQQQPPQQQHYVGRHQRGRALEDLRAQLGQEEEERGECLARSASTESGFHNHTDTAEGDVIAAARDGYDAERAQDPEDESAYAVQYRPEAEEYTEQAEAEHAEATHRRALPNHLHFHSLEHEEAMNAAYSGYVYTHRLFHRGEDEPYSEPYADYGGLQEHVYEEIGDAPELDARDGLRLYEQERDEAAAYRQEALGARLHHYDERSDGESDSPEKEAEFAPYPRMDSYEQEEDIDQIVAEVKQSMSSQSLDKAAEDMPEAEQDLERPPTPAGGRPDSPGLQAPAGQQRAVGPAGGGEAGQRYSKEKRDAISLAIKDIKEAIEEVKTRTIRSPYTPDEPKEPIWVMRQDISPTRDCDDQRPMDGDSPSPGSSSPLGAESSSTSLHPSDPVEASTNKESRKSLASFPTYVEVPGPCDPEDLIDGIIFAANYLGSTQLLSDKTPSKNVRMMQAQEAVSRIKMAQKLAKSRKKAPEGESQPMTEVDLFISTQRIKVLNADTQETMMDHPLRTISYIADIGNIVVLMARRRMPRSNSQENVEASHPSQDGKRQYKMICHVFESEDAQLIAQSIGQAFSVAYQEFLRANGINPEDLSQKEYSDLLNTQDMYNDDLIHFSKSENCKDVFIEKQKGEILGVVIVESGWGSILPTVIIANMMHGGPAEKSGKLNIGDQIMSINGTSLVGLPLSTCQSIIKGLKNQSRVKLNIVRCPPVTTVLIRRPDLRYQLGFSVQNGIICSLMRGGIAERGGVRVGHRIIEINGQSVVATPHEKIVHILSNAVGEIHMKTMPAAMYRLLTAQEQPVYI
Assay [16] concerns the target T4, Voltage-gated N-type calcium channel alpha-1B subunit/Amyloid beta A4 precursor protein-binding family A member 1. Put plainly: disruptors of Mint-PDZ/N-type channel peptide interaction – biochemical, HTRF, SAR follow-up (AID 2489). The assay is classed as functional. (In general: TR-FRET usually uses a lanthanide donor and a delayed reading to cut background.)

The nature of assay [17]: HGIII-sPLA2 enzyme inhibition potency – biochemical, QFRET, IC50, dose response (AID 743457).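 Note: green fluorescence rise as the enzyme cleaves BODIPY PC-A2 in liposomes.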
The target in a further assay is T5, Protein Tat (Human immunodeficiency virus type 1 group M subtype B (isolate HXB2)(HIV-1), UniProt P04608).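 Note: tat binding to TAR RNA read out by fluorescence polarization.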
T5 sequence (P04608 whole entry): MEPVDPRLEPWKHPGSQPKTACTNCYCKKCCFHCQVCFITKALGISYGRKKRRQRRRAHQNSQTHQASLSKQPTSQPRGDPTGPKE
The assay is classed as functional.

Another assay has as its target T6, Bcl-2-like protein 10 (Homo sapiens, UniProt Q9HD36).
T6 sequence (Q9HD36 whole entry): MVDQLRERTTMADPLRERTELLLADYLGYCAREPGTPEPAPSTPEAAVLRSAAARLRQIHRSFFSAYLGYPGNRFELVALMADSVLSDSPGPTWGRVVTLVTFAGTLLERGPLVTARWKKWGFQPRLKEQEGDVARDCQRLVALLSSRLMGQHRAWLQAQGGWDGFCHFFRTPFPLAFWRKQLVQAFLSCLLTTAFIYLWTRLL
As to the kind of experiment: Bcl-B/TR3 peptide binding disruption – biochemical, fluorescence polarization, FITC-TR3 peptide, selectivity assay for Bfl-1 inhibitor project, primary screen (AID 748).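 Note: fluorescence polarization from a fluorescein-labelled TR3 peptide binding purified Bcl-B.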

Assay [18] can be described thus: viability loss in THP-1 monocytes – THP-1 cells, cytotoxicity control for Vif-APOBEC3G degradation inhibitor project, dose response (AID 1117359). The assay is classed as functional. To be noted: THP-1.
Assay [19] has as its target T7, Histone-lysine N-methyltransferase NSD2 (Homo sapiens, UniProt O96028).
T7 sequence (O96028 whole entry): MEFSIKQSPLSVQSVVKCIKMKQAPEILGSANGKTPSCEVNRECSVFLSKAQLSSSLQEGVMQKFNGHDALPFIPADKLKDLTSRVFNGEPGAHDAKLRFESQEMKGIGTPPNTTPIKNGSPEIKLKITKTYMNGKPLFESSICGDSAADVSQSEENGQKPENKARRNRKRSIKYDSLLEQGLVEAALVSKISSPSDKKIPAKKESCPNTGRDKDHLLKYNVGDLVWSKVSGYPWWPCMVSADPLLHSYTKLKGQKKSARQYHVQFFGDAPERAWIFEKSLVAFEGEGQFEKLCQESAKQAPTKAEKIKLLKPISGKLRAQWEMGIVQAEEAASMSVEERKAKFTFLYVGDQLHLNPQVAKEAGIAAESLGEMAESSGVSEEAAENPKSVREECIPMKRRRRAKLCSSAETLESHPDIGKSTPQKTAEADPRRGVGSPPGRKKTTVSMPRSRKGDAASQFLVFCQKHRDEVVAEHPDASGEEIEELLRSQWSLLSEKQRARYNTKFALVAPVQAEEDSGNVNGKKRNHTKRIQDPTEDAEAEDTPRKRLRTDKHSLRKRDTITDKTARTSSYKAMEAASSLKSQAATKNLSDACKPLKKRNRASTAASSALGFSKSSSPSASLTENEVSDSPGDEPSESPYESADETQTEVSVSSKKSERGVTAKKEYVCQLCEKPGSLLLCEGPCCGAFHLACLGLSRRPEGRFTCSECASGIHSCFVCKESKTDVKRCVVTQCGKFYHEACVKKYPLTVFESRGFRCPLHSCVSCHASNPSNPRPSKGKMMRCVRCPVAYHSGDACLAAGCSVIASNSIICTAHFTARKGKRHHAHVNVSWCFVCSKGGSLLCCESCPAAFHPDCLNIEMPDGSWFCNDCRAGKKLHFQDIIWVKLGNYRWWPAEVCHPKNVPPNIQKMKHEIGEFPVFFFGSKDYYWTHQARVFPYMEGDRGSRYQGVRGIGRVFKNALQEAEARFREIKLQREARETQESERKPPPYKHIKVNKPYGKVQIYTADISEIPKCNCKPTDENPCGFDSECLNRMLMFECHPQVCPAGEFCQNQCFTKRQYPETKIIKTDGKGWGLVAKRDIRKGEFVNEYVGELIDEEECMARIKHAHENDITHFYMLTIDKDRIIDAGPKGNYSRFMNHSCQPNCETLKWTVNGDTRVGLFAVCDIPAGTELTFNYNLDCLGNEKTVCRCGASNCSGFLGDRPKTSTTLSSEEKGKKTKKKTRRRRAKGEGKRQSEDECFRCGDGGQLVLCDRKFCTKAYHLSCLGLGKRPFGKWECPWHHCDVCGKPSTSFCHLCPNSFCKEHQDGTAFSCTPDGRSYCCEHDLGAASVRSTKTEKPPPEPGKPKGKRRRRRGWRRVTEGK
The assay is classed as biochemical.

Assay [20] in a line: fluconazole-exposed Candida albicans growth modulators – fluorescence, retest, confirmation (AID 2467). The assay is classed as functional, cell-based.
Assay [21] in a line: NIH-3T3 fibroblast cytotoxicity, dose response, cytotoxicity control, cell-based, fluorescence, Alamar Blue, secondary assay (AID 2327).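 Note: NIH-3T3 mouse fibroblasts cultured with fluconazole at 8 µg/mL.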 The format is functional.

The source made the active and inactive calls.

The text below walks through data of ChEMBL document CHEMBL1201862, “PubChem BioAssay data set” (2004).

In general, EC50 refers to the concentration that produces a half-maximal response. A word on the AC50: it is the midpoint of the concentration-response curve, whichever way the signal moves. As a reminder, the IC50 is the concentration needed to halve the response being measured.

Chain of DNA dC->dU-editing enzyme APOBEC-3G (Q9HC16 whole entry): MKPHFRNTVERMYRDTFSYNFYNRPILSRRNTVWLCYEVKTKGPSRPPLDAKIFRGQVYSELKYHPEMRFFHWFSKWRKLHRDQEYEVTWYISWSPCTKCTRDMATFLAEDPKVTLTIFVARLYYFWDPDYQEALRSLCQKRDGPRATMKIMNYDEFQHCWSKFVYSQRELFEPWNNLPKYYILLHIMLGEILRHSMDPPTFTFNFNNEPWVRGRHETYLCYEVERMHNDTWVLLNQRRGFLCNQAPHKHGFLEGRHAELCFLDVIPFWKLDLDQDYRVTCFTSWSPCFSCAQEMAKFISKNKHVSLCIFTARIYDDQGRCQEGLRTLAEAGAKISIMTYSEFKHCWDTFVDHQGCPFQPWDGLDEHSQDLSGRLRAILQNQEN

As for `c1ccc(CN2CCC(Nc3nc(-c4ccccc4)nc4ccccc34)CC2)cc1`, the EC50 in assay [1] is 12.3 µM (active); in assay [2] it was 19.6 µM (active); in [3] it was 9.69 µM (active). For the same compound, the CC50 in assay [4] is 20.3 µM (active). Moreover, the AC50 in assay [5] is 5.72 µM (active).

Consider `O=C1C=CC(=O)C(C2=C3C(=O)N(CCc4ccccc4)CC(=O)N3CCC2)=C1`, for which the EC50 in [6] is 14.9 µM (inconclusive); in assay [9], 45.9 µM (active). The IC50 at Perilipin-1/ABHD5 is 4.37 µM (active); in assay [7], 8.15 µM (active); at Hexokinase HKDC1, 3.73 µM (active); in assay [8] it was 5.72 µM (active); in [10] it was > 100 µM (inactive); in assay [11], 4.75 µM (not active). Moreover, the IC50 on Beta-galactosidase is > 66.6 µM (inactive).

Consider `c1ccc(C2Nc3ccccc3C3OCCCC23)cc1` (stereo unspecified), for which the IC50 in [12] is 7.36 µM (active).

Take `O=C(C1CCCCN1Cc1cccc(Cl)c1Cl)N1CCN(c2ccc([N+](=O)[O-])cc2)CC1` (stereo unspecified): the IC50 in assay [13] was 3.3 µM (active); in assay [14], 4.4 µM (active).

As for `O=C(NC1CCC(c2ccccc2)CC1)c1cc(-c2ccco2)nc2ccccc12` (stereo unspecified), the results for the IC50 in assay [15] and in assay [16] were 25.5 µM (active) and 5.59 µM (active), respectively.

With `N#C/C(C(N)=O)=c1/ccc2c(c1)N1C3=C(CCCC3)CC3CCCCC31N=2` (stereo unspecified), the IC50 is 72.7 µM (inactive) in assay [17], > 100 µM (inconclusive) at Protein Tat and > 50 µM (inactive) at Bcl-2-like protein 10. Moreover, the CC50 in [18] is 33.5 µM (active). Besides, the AC50 in assay [19] was 10.2 µM (active). Besides, the EC50 is 4.01 µM (active) in [20] and 8.74 µM (inconclusive) in [21].
